In paper PMC7377239, “Cardiovascular Effects of Polychlorinated Biphenyls and Their Major Metabolites” (Environmental Health Perspectives, 2020):
Counter-ions that a name gives are not always drawn. Like-named read-outs stand apart in the source and are kept apart here.

Test system: iCell cardiomyocytes (human iPSC-derived cardiomyocytes)
Assay: Intracellular Ca2+ flux / beating parameters in iCell cardiomyocytes (FLIPR tetra), 90 min or 24 h
Type: cell-based
Settings: Homo sapiens, Cardiomyocyte, 0.00 µM = 100.00; for activity at 0.1 µM: 0.10 µM
How it was run: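 Gelatin-plated iCell cardiomyocytes (5,000/well) were dye-loaded for 2 h at 37 °C, then exposed for 90 min or 24 h to PCBs/metabolites (5× plates at 0.05–500 µM; 0.5% DMSO final) in triplicate. Ca2+ flux was read for 100 s at 8 Hz and 37 °C. Peak height, frequency, spacing CV and decay/rise ratio were vehicle-normalized and fitted with a four-parameter logistic model, with POD set at 1 SD of vehicle.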

[1] = 1.5 h, read-out: cm.amp.avg.90min
[2] = 1.5 h, read-out: cm.amp.cv.90min
[3] = 1.5 h, read-out: cm.decay.rise.90min
[4] = 1.5 h, read-out: cm.spacing.cv.90min
[5] = 24 h, read-out: cm.amp.avg.24hrs
[6] = 24 h, read-out: cm.amp.cv.24hrs
[7] = 24 h, read-out: cm.decay.rise.24hrs
[8] = 24 h, read-out: cm.spacing.cv.24hrs

## Oc1ccc(O)c(-c2ccc(Cl)cc2)c1 [2',5'-DiOH PCB3]
[1]
  activity at 0.01 µM: 102%
  activity at 0.1 µM: 105%
  activity at 1 µM: 106%
  activity at 10 µM: 110%
  activity at 100 µM: 9.07%
[2]
  activity at 0.01 µM: 90%
  activity at 0.1 µM: 110%
  activity at 1 µM: 93.3%
  activity at 10 µM: 112%
  activity at 100 µM: 380%
1.5 h, read-out: cm.bpm.90min
  activity at 0.01 µM: 99.1%
  activity at 0.1 µM: 100%
  activity at 1 µM: 92.8%
  activity at 10 µM: 104%
  activity at 100 µM: 7.52%
[3]
  activity at 0.01 µM: 97.4%
  activity at 0.1 µM: 95.6%
  activity at 1 µM: 98.3%
  activity at 10 µM: 105%
  activity at 100 µM: 21.5%
[4]
  activity at 0.01 µM: 113%
  activity at 0.1 µM: 94%
  activity at 1 µM: 107%
  activity at 10 µM: 132%
  activity at 100 µM: 381%
[5]
  activity at 0.01 µM: 161%
  activity at 0.1 µM: 147%
  activity at 1 µM: 141%
  activity at 10 µM: 0%
  activity at 100 µM: 0%
[6]
  activity at 0.01 µM: 75.5%
  activity at 0.1 µM: 75%
  activity at 1 µM: 69.9%
  activity at 10 µM: 0%
  activity at 100 µM: 0%
24 h, read-out: cm.bpm.24hrs
  activity at 0.01 µM: 105%
  activity at 0.1 µM: 100%
  activity at 1 µM: 92.6%
  activity at 10 µM: 0%
  activity at 100 µM: 0%
[7]
  activity at 0.01 µM: 98.5%
  activity at 0.1 µM: 101%
  activity at 1 µM: 109%
  activity at 10 µM: 0%
  activity at 100 µM: 0%
[8]
  activity at 0.01 µM: 110%
  activity at 0.1 µM: 93.3%
  activity at 1 µM: 89%
  activity at 10 µM: 0%
  activity at 100 µM: 0%

## O=S(=O)(O)Oc1ccc(-c2ccc(Cl)cc2)cc1 [4'-yl PCB 3 sulfate]
[1]
  activity at 0.01 µM: 91%
  activity at 0.1 µM: 100%
  activity at 1 µM: 98%
  activity at 10 µM: 93%
  activity at 100 µM: 0%
[2]
  activity at 0.01 µM: 97%
  activity at 0.1 µM: 92%
  activity at 1 µM: 75.3%
  activity at 10 µM: 105%
  activity at 100 µM: 0%
1.5 h, read-out: cm.bpm.90min
  activity at 0.01 µM: 100%
  activity at 0.1 µM: 100%
  activity at 1 µM: 100%
  activity at 10 µM: 104%
  activity at 100 µM: 0%
[3]
  activity at 0.01 µM: 100%
  activity at 0.1 µM: 98.1%
  activity at 1 µM: 95.6%
  activity at 10 µM: 97.7%
  activity at 100 µM: 0%
[4]
  activity at 0.01 µM: 138%
  activity at 0.1 µM: 107%
  activity at 1 µM: 90.9%
  activity at 10 µM: 104%
  activity at 100 µM: 0%
[5]
  activity at 0.01 µM: 114%
  activity at 0.1 µM: 46.3%
  activity at 1 µM: 68%
  activity at 10 µM: 89.3%
  activity at 100 µM: 112%
[6]
  activity at 0.01 µM: 86.7%
  activity at 0.1 µM: 44.4%
  activity at 1 µM: 33.8%
  activity at 10 µM: 96.4%
  activity at 100 µM: 68.8%
24 h, read-out: cm.bpm.24hrs
  activity at 0.01 µM: 102%
  activity at 0.1 µM: 47.7%
  activity at 1 µM: 46.8%
  activity at 10 µM: 101%
  activity at 100 µM: 79.2%
[7]
  activity at 0.01 µM: 89.3%
  activity at 0.1 µM: 52.8%
  activity at 1 µM: 51.1%
  activity at 10 µM: 105%
  activity at 100 µM: 113%
[8]
  activity at 0.01 µM: 96.8%
  activity at 0.1 µM: 48.2%
  activity at 1 µM: 55.8%
  activity at 10 µM: 108%
  activity at 100 µM: 103%

## O=S(=O)(O)Oc1cccc(-c2ccc(Cl)cc2)c1 [3'-yl PCB 3 sulfate]
[1]
  activity at 0.01 µM: 106%
  activity at 0.1 µM: 106%
  activity at 1 µM: 111%
  activity at 10 µM: 109%
  activity at 100 µM: 109%
[2]
  activity at 0.01 µM: 121%
  activity at 0.1 µM: 103%
  activity at 1 µM: 84.7%
  activity at 10 µM: 88.3%
  activity at 100 µM: 86.7%
1.5 h, read-out: cm.bpm.90min
  activity at 0.01 µM: 96.5%
  activity at 0.1 µM: 100%
  activity at 1 µM: 99.1%
  activity at 10 µM: 100%
  activity at 100 µM: 91.5%
[3]
  activity at 0.01 µM: 95.8%
  activity at 0.1 µM: 99.3%
  activity at 1 µM: 96.2%
  activity at 10 µM: 95.3%
  activity at 100 µM: 99.4%
[4]
  activity at 0.01 µM: 108%
  activity at 0.1 µM: 110%
  activity at 1 µM: 94.2%
  activity at 10 µM: 94.3%
  activity at 100 µM: 107%
[5]
  activity at 0.01 µM: 79%
  activity at 0.1 µM: 60.9%
  activity at 1 µM: 86.6%
  activity at 10 µM: 75%
  activity at 100 µM: 85%
[6]
  activity at 0.01 µM: 31.6%
  activity at 0.1 µM: 151%
  activity at 1 µM: 96.4%
  activity at 10 µM: 122%
  activity at 100 µM: 91.8%
24 h, read-out: cm.bpm.24hrs
  activity at 0.01 µM: 52.5%
  activity at 0.1 µM: 102%
  activity at 1 µM: 89.7%
  activity at 10 µM: 101%
  activity at 100 µM: 92.6%
[7]
  activity at 0.01 µM: 45.2%
  activity at 0.1 µM: 90.7%
  activity at 1 µM: 117%
  activity at 10 µM: 98.6%
  activity at 100 µM: 99%
[8]
  activity at 0.01 µM: 48.7%
  activity at 0.1 µM: 98.6%
  activity at 1 µM: 96.2%
  activity at 10 µM: 93.8%
  activity at 100 µM: 87.7%
